This assay concerns L1210 leukemia ip in BDF1 mice, survival T/C. Kind of assay: NCI In Vivo Anticancer Drug Screen. Data for tumor model L1210 Leukemia (intraperitoneal) in B6D2F1 (BDF1) mice. To be noted: endpoint: mean survival time, higher = longer survival. In short, it runs like this:
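Tumor was transplanted into mice, which were then dosed with test compound or vehicle alone. Survival was recorded for each group, and the treated figure was expressed relative to the control figure.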

Where [1] appears, read: dose: 100.0 mg/kg/injection, schedule: Q01DX001 (ip), vehicle: carboxymethylcellulose (CMC).
Where [2] appears, read: dose: 200.0 mg/kg/injection, schedule: Q01DX001 (ip), vehicle: carboxymethylcellulose (CMC).
Setting [3] is: dose: 100.0 mg/kg/injection, schedule: Q04DX003 (ip), vehicle: saline with Tween-80.
Setting [4] is: dose: 200.0 mg/kg/injection, schedule: Q04DX003 (ip), vehicle: saline with Tween-80.
Setting [5] is: dose: 400.0 mg/kg/injection, schedule: Q04DX003 (ip), vehicle: saline with Tween-80.
[6] abbreviates: dose: 100.0 mg/kg/injection, schedule: Q01DX001 (ip), vehicle: saline.
The mark [7] stands for this setting: dose: 100.0 mg/kg/injection, schedule: Q04DX003 (ip), vehicle: saline.
Setting [8] is: dose: 200.0 mg/kg/injection, schedule: Q01DX001 (ip), vehicle: saline.
[9] abbreviates: dose: 200.0 mg/kg/injection, schedule: Q04DX003 (ip), vehicle: saline.
Where [10] appears, read: dose: 100.0 mg/kg/injection, schedule: Q04DX003 (ip), vehicle: Klucel (hydroxypropylcellulose) (HPC).
The mark [11] stands for this setting: dose: 200.0 mg/kg/injection, schedule: Q04DX003 (ip), vehicle: Klucel (hydroxypropylcellulose) (HPC).
The mark [12] stands for this setting: dose: 400.0 mg/kg/injection, schedule: Q04DX003 (ip), vehicle: Klucel (hydroxypropylcellulose) (HPC).
Setting [13] is: dose: 100.0 mg/kg/injection, schedule: Q04DX002 (ip), vehicle: Klucel (hydroxypropylcellulose) (HPC).
The mark [14] stands for this setting: dose: 400.0 mg/kg/injection, schedule: Q04DX002 (ip), vehicle: Klucel (hydroxypropylcellulose) (HPC).
[15] abbreviates: dose: 400.0 mg/kg/injection, schedule: Q01DX001 (ip), vehicle: saline.
The mark [16] stands for this setting: dose: 200.0 mg/kg/injection, schedule: Q04DX002 (ip), vehicle: Klucel (hydroxypropylcellulose) (HPC).
Where [17] appears, read: dose: 50.0 mg/kg/injection, schedule: Q01DX009 (ip), vehicle: saline with Tween-80.
[18] abbreviates: dose: 100.0 mg/kg/injection, schedule: Q01DX009 (ip), vehicle: saline with Tween-80.
Where [19] appears, read: dose: 200.0 mg/kg/injection, schedule: Q01DX009 (ip), vehicle: saline with Tween-80.
Setting [20] is: dose: 100.0 mg/kg/injection, schedule: Q01DX009 (ip), vehicle: Klucel (hydroxypropylcellulose) (HPC).
Where [21] appears, read: dose: 200.0 mg/kg/injection, schedule: Q01DX009 (ip), vehicle: Klucel (hydroxypropylcellulose) (HPC).
[22] abbreviates: dose: 400.0 mg/kg/injection, schedule: Q01DX009 (ip), vehicle: Klucel (hydroxypropylcellulose) (HPC).
[23] abbreviates: dose: 400.0 mg/kg/injection, schedule: Q04DX003 (ip), vehicle: saline.

Several values for one entry are separate records, joined by “and”; a condition that tells them apart may be missing. Equal values may be shown once. Toxic doses and inconclusive results are not listed.

21 molecules from PubChem BioAssay AID248 (DTP/NCI, 2004) can be followed below.

As for `CC(=O)Nc1cc2c(cc1Br)-c1ccccc1C2O` (centres undefined), the T/C under setting [1] was 98 % of control; the T/C (dose: 110.0 mg/kg/injection, schedule: Q01DX Z (ip), vehicle: other) is 98 % of control; the T/C (dose: 166.0 mg/kg/injection, schedule: Q01DX Z (ip), vehicle: other) was 101 % of control; the T/C under setting [2] was 97 % of control; the T/C (dose: 250.0 mg/kg/injection, schedule: Q01DX Z (ip), vehicle: other) was 98 % of control; the T/C (dose: 296.0 mg/kg/injection, schedule: Q01DX Z (ip), vehicle: saline) was 103 % of control. Moreover, the T/C by setting is: (dose: 444.0 mg/kg/injection, schedule: Q01DX Z (ip), vehicle: saline) 105 % of control; (dose: 560.0 mg/kg/injection, schedule: Q01DX Z (ip), vehicle: other) 103 % of control; (dose: 666.0 mg/kg/injection, schedule: Q01DX Z (ip), vehicle: saline) 106 % of control.

Regarding `N#CCC[P+](CCC#N)(CCC#N)CCCC[P+](CCC#N)(CCC#N)CCC#N`, the T/C runs as follows: under setting [3], 94 % of control; under setting [4], 91 % of control; under setting [5], 94 % of control.

With `CCC(CC)(COC(C)=O)C[N+](C)(C)C`, the T/C reads like this: under setting [6], 103 % of control; under setting [7], 94 % of control; under setting [8], 95 % of control; under setting [9], 102 % of control.

For `CN(C)/C=N/NC(=O)C(O)c1ccccc1` (centres undefined), the T/C was 116 % of control under setting [3], 103 % of control under setting [4] and 111 % of control under setting [5].

For `COc1c(N(C)C)cc2c(c1C)OC(C)(C)C=C2`, the T/C was 96 % of control under setting [3], 94 % of control under setting [4] and 96 % of control under setting [5].

In the case of `N=C1N=C(N)C(CCCOc2cc(Cl)ccc2Cl)(CCCOc2cc(Cl)ccc2Cl)C(N)=N1`, the T/C is, setting by setting: under setting [10], 94 % of control; under setting [11], 106 % of control; under setting [12], 87 % of control.

For `NC(=O)c1nn(C2OC(CO)C(O)C2O)c2ncnc(N)c12` (centres undefined), the T/C (dose: 50.0 mg/kg/injection, schedule: Q01DX005 (ip), vehicle: saline) is 236 % of control; the T/C (dose: 100.0 mg/kg/injection, schedule: Q01DX005 (ip), vehicle: saline) is 258 % of control; the T/C (dose: 200.0 mg/kg/injection, schedule: Q01DX005 (ip), vehicle: saline) was 236 % of control.

Regarding `CCc1c(Nc2ccccc2C)[nH]c(N)nc1=S`, the T/C is, setting by setting: (dose: 100.0 mg/kg/injection, schedule: Q01DX Z (ip), vehicle: methylcellulose (MC)) 101 % of control; (dose: 200.0 mg/kg/injection, schedule: Q01DX Z (ip), vehicle: methylcellulose (MC)) 95 % of control.

For `Cc1ccc2c(c1)[n+]([O-])c1nc(N)nc(N)c1[n+]2[O-]`, the T/C reads like this: (dose: 50.0 mg/kg/injection, schedule: Q04DX002 (ip), vehicle: Klucel (hydroxypropylcellulose) (HPC)) 93 % of control; (dose: 53.0 mg/kg/injection, schedule: Q01DX001 (ip), vehicle: Klucel (hydroxypropylcellulose) (HPC)) 97 % of control; (dose: 88.0 mg/kg/injection, schedule: Q01DX001 (ip), vehicle: Klucel (hydroxypropylcellulose) (HPC)) 96 % of control; under setting [13], 102 % of control and 104 % of control; (dose: 133.0 mg/kg/injection, schedule: Q01DX001 (ip), vehicle: Klucel (hydroxypropylcellulose) (HPC)) 91 % of control; (dose: 200.0 mg/kg/injection, schedule: Q01DX001 (ip), vehicle: Klucel (hydroxypropylcellulose) (HPC)) 97 % of control. In addition, the T/C is 104 % of control (dose: 300.0 mg/kg/injection, schedule: Q01DX001 (ip), vehicle: Klucel (hydroxypropylcellulose) (HPC)); 98 % of control and 119 % of control under setting [14].

`CCCC(=O)NC1CCC(CC2CCCCC2)CC1` (centres undefined): the T/C was 92 % of control (dose: 50.0 mg/kg/injection, schedule: Q01DX009 (ip), vehicle: other); 106 % of control (dose: 100.0 mg/kg/injection, schedule: Q01DX009 (ip), vehicle: other); 100 % of control (dose: 100.0 mg/kg/injection, schedule: Q04DX003 (ip), vehicle: other); 98 % of control (dose: 200.0 mg/kg/injection, schedule: Q01DX009 (ip), vehicle: other); 100 % of control (dose: 200.0 mg/kg/injection, schedule: Q04DX003 (ip), vehicle: other).

Turning to `Nn1c(-c2cccc(O)c2)nnc1-c1cccc(O)c1`, the T/C was 104 % of control under setting [6], 95 % of control under setting [8] and 101 % of control under setting [15].

For `CN1C(=O)C(Br)=C(Br)C1(O)c1cccnc1` (centres undefined), the T/C (dose: 50.0 mg/kg/injection, schedule: Q01DX001 (ip), vehicle: saline) is 104 % of control; the T/C under setting [6] is 104 % of control; the T/C under setting [8] was 95 % of control; the T/C under setting [15] is 98 % of control.

On to `N=Nc1c(O)[nH]c2ccccc12`, for which the T/C is, setting by setting: under setting [13], 92 % of control; under setting [16], 96 % of control; under setting [14], 92 % of control.

Regarding `COc1cc2c(cc1O)/C(=N/O)CCCC2`, the T/C is 102 % of control under setting [17]; 102 % of control under setting [18]; 106 % of control under setting [19]; 104 % of control (dose: 400.0 mg/kg/injection, schedule: Q01DX009 (ip), vehicle: saline with Tween-80).

In the case of `CC(N)C(=O)NC(CC(N)=O)C(=O)O` (centres undefined), the T/C (dose: 25.0 mg/kg/injection, schedule: Q04DX002 (ip), vehicle: saline) is 95 % of control; the T/C (dose: 50.0 mg/kg/injection, schedule: Q01DX001 (ip), vehicle: carboxymethylcellulose (CMC)) is 97 % of control; the T/C (dose: 50.0 mg/kg/injection, schedule: Q04DX002 (ip), vehicle: saline) is 100 % of control; the T/C under setting [1] is 97 % of control; the T/C (dose: 100.0 mg/kg/injection, schedule: Q04DX002 (ip), vehicle: saline) is 106 % of control; the T/C under setting [2] is 97 % of control. The T/C (dose: 400.0 mg/kg/injection, schedule: Q01DX001 (ip), vehicle: carboxymethylcellulose (CMC)) is 95 % of control.

Take `C[S+](C)(=O)/C=C(\[O-])Nc1ccccc1`: the T/C under setting [20] was 101 % of control; the T/C under setting [10] was 101 % of control; the T/C under setting [21] was 92 % of control; the T/C under setting [11] is 97 % of control; the T/C under setting [22] was 97 % of control; the T/C under setting [12] is 103 % of control.

With `O=C1OC(c2c3ccccc3cc3ccccc23)c2ccccc21` (centres undefined), the T/C reads like this: under setting [17], 98 % of control; under setting [18], 98 % of control; under setting [19], 95 % of control.

On to `Oc1ccc(-c2nnc(-c3ccc(O)cc3)nn2)cc1`, for which the T/C under setting [13] is 91 % of control, the T/C under setting [16] was 94 % of control and the T/C under setting [14] was 102 % of control.

Consider `O=S(=O)(OC1CCCCC1Br)c1ccc(Br)cc1` (centres undefined), for which the T/C by setting is: under setting [17], 98 % of control; under setting [18], 95 % of control.

For the molecule `Cc1ccc(N2CSC(=S)N(c3ccc(C)cc3)C2)cc1`, the T/C is 101 % of control under setting [20]; 94 % of control under setting [7]; 96 % of control under setting [21]; 89 % of control under setting [9]; 95 % of control under setting [22]; 88 % of control under setting [23].

In the case of `CC(=O)C(=Cc1ccccc1)C(C)=O`, the T/C is, setting by setting: (dose: 50.0 mg/kg/injection, schedule: Q01DX009 (ip), vehicle: Klucel (hydroxypropylcellulose) (HPC)) 97 % of control; under setting [20], 87 % of control and 90 % of control; under setting [10], 92 % of control; under setting [7], 106 % of control; under setting [21], 95 % of control; under setting [11], 97 % of control. In addition, the T/C by setting is: under setting [9], 116 % of control; under setting [22], 91 % of control; under setting [12], 97 % of control; under setting [23], 106 % of control.
